In patent US20090018106A1, “INTRAVENOUS FORMULATIONS OF PYRIDOXAL 5'- PHOSPHATE AND METHOD OF PREPARATION” (Medicure International Inc., priority 2005, published 2009):
Where two headings read alike, the source gives them in different places.

Key:
[1] = Single intravenous dose escalation of P5P, plasma pharmacokinetics (Examples Two and Three); format: in vivo, human; conditions: for Cmax / MRT / Tmax / half-life / AUC(0-inf) / AUC(0-t): both sexes, human; for Cmax / MRT / Tmax / half-life: plasma, iv; for Significance of b1, lnAUCi / Significance of b1, lnCmax / Significance of b1, lnMRT / Significance of b1, lnThalf / Coef. for Dose (b1), lnAUCi / Coef. for Dose (b1), lnCmax / Coef. for Dose (b1), lnMRT / Coef. for Dose (b1), lnThalf / Intercept (b0), lnAUCi / Intercept (b0), lnCmax / Intercept (b0), lnMRT / Intercept (b0), lnThalf: ln(pK Parameter) = b0 + b1 * ln (Dose); for Coef. for Dose (b1), lnAUCi / Coef. for Dose (b1), lnCmax / Coef. for Dose (b1), lnMRT / Coef. for Dose (b1), lnThalf / Intercept (b0), lnAUCi / Intercept (b0), lnCmax / Intercept (b0), lnMRT / Intercept (b0), lnThalf: single iv 1-20 mg/kg; for dose relationship of plasma AUCinf and Cmax: single iv P5P 1-20 mg/kg
Experimental: A phase one clinical trial was conducted to compare the pharmacokinetics of intravenously administered P5P and orally administered P5P. The trial was a single dose escalation study.
For intravenous administration, P5P was administered by bolus injection under fasting conditions. The following doses of P5P were studied: 1, 5, 10, and 20 mg/kg. 6 subjects were assigned to each dosage group.
P5P, pyridoxal, and 4-pyridoxic acid were evaluated in both plasma and urine over a 24 hour interval following either intravenous or oral dosing. The results are set out below in Tables 2 and 3.
Methodology—This was a single-blind, single-dose escalation, non-randomized, 4-phase, non-crossover study designed to evaluate the safety and […] subjects under fasting conditions and to estimate pharmacokinetic parameters of P5P.
Subjects were assigned to one of the four groups (six subjects per group) under fasting conditions.
Concentrations of pyridoxal-5′-phosphate (P5P) were measured from the plasma samples collected over a 24-bour interval after dosing in each phase.
Pharmacokinetic parameters: AUCt, AUCinf, Cmax, Tmax, Kel, Thalf, Vd, CL, MRT and F were estimated based on pyridoxal-5′-phosphate (P5P) plasma levels for each subject that was in the final data set.
The test product used was a P5P Intravenous Injectable Solution, 50 mg/ml, which was prepared in accordance with the methods of Example 1 (CanAm BioResearch Inc. Canada); Lot No.: LP1459: Manufacturing Date: 12/03. A single 1, 5, 10 or 20 mg/kg dose was given by intravenous injection. The duration of treatment was a single dose.
Secondary Endpoint—Pharmacokinetic (PK) Parameters—Plasma concentrations of pyridoxal-5′-phosphate (P5P) were measured by a validated analytical method. Based on these concentration levels, AUCt, AUCinf, Cmax, Tmax, Kel, Thalf, Vd, CL, MRT and F were estimated.
Statistical Methods—Descriptive statistics were calculated by treatments for the estimated pharmacokinetic parameters.

[2] = Once daily intravenous 10 mg/kg P5P for four days, urinary excretion and renal clearance (Example Four); format: in vivo, human; conditions: P5P 10 mg/kg iv once daily, 4 days, mean; for CL renal: human, urine and plasma, iv, 10 mg/kg, read-out: CLR, renal clearance (converted)
Experimental: Data sets analyzed—Six (6) healthy, adult non-smokers were administered intravenously a single daily dose of 10 mg/kb of P5P for four consecutive days and completed the study. In accordance with the study protocol, data from all subjects who completed the study were used for pharmacokinetic and statistical analysis.
Analytical Methods—Plasma and urine samples were used for analysis. P5P, PAL, and PA levels were determined by HPLC/FLD. The quantitation level was 5 ng/mL for plasma and 100 ng/mL for urine. The sample analysis calibration curve range was 5 ng/mL to 5000 ng/mL for plasma and 100 ng/mL to 50,000 ng/mL for urine.
Total and Renal Clearance—Total body clearance was estimated for P5P and was calculated as Dose/AUC0-inf.

[3] = Group 1, P5P 1 mg/kg single iv, plasma PA, mean
[4] = Group 2, P5P 5 mg/kg single iv, plasma PA, mean
[5] = Group 3, P5P 10 mg/kg single iv, plasma PA, mean
[6] = Group 4, P5P 20 mg/kg single iv, plasma PA, mean
[7] = 1 mg/kg, Group 1, P5P 1 mg/kg single iv, plasma PA, mean
[8] = 5 mg/kg, Group 2, P5P 5 mg/kg single iv, plasma PA, mean
[9] = 10 mg/kg, Group 3, P5P 10 mg/kg single iv, plasma PA, mean
[10] = 20 mg/kg, Group 4, P5P 20 mg/kg single iv, plasma PA, mean
[11] = over all single iv doses of P5P (1-20 mg/kg), read-out: apparent elimination half-life (converted)
[12] = Group 1, P5P 1 mg/kg single iv, plasma PAL, mean
[13] = Group 2, P5P 5 mg/kg single iv, plasma PAL, mean
[14] = Group 3, P5P 10 mg/kg single iv, plasma PAL, mean
[15] = Group 4, P5P 20 mg/kg single iv, plasma PAL, mean
[16] = 1 mg/kg, Group 1, P5P 1 mg/kg single iv, plasma PAL, mean
[17] = 5 mg/kg, Group 2, P5P 5 mg/kg single iv, plasma PAL, mean
[18] = 10 mg/kg, Group 3, P5P 10 mg/kg single iv, plasma PAL, mean
[19] = 20 mg/kg, Group 4, P5P 20 mg/kg single iv, plasma PAL, mean

Molecule `Cc1ncc(CO)c(C(=O)O)c1O` [PA, 4-pyridoxic acid] has a Kel [1, 3] of 0.311 h⁻¹, a Kel [1, 4] of 0.332 h⁻¹ and a Kel [1, 5] of 0.268 h⁻¹. For the same molecule, the Kel [1, 6] was 0.216 h⁻¹, the Cmax [1, 7] was 419 ng/mL and the MRT [1, 7] was 4.5 h. For the same molecule, the Tmax [1, 7] was 1.04 h, the half-life ([1]; 1 mg/kg, Group 1, P5P 1 mg/kg single iv, plasma PA, mean, read-out: T½ (converted)) was 2.82 h and the Cmax [1, 8] was 2450 ng/mL. For the same molecule, the MRT [1, 8] was 3.48 h, the Tmax [1, 8] was 0.71 h and the half-life ([1]; 5 mg/kg, Group 2, P5P 5 mg/kg single iv, plasma PA, mean, read-out: T½ (converted)) was 2.12 h. It also gave a Cmax [1, 9] of 5360 ng/mL, an MRT [1, 9] of 3.85 h and a Tmax [1, 9] of 0.74 h. It also gave a half-life ([1]; 10 mg/kg, Group 3, P5P 10 mg/kg single iv, plasma PA, mean, read-out: T½ (converted)) of 2.73 h, a Cmax [1, 10] of 16100 ng/mL and an MRT [1, 10] of 4.13 h. For the same molecule, the Tmax [1, 10] was 0.73 h, the half-life ([1]; 20 mg/kg, Group 4, P5P 20 mg/kg single iv, plasma PA, mean, read-out: T½ (converted)) was 3.48 h and the half-life [1, 11] was 2 to 3.5 h. The AUC(0-inf) [1, 3] was 1990 ng·h/mL, the AUC(0-t) ([1]; Group 1, P5P 1 mg/kg single iv, plasma PA, mean, read-out: AUC(0-t)) was 1500 ng·h/mL and the AUC(0-inf) [1, 4] was 10700 ng·h/mL. For the same molecule, the AUC(0-t) ([1]; Group 2, P5P 5 mg/kg single iv, plasma PA, mean, read-out: AUC(0-t)) was 10500 ng·h/mL, the AUC(0-inf) [1, 5] was 23000 ng·h/mL and the AUC(0-t) ([1]; Group 3, P5P 10 mg/kg single iv, plasma PA, mean, read-out: AUC(0-t)) was 22700 ng·h/mL. For the same molecule, the AUC(0-inf) [1, 6] was 53000 ng·h/mL, the AUC(0-t) ([1]; Group 4, P5P 20 mg/kg single iv, plasma PA, mean, read-out: AUC(0-t)) was 51900 ng·h/mL and the “Significance of b1, lnAUCi” value [1] was less than 0.0001. The “Significance of b1, lnCmax” value [1] was less than 0.0001, the “Significance of b1, lnMRT” value [1] was 0.7995 and the “Significance of b1, lnThalf” value [1] was 0.2604. The “Coef. for Dose (b1), lnAUCi” value [1] was 1.10, the “Coef. for Dose (b1), lnCmax” value [1] was 1.20 and the “Coef. for Dose (b1), lnMRT” value [1] was −0.01. For the same molecule, the “Coef. for Dose (b1), lnThalf” value [1] was 0.08, the “Intercept (b0), lnAUCi” value [1] was 0.62 and the “Intercept (b0), lnCmax” value [1] was −0.98. For the same molecule, the “Intercept (b0), lnMRT” value [1] was 1.37, the “Intercept (b0), lnThalf” value [1] was 0.82 and the “dose relationship of plasma AUCinf and Cmax” value [1] was “increase more than expected based on dose”. The “Ae0-t, total amount excreted in urine” value ([2]; Day 1, PA) was 172950596 ng, the “Ae0-t, total amount excreted in urine” value ([2]; Day 4, PA) was 225885311 ng and the CL renal ([2]; Day 1, PA) was 144 mL/min. The CL renal ([2]; Day 4, PA) was 179 mL/min.
Molecule `Cc1ncc(CO)c(C=O)c1O` [PAL, pyridoxal] has a Kel [1, 12] of 0.198 h⁻¹, a Kel [1, 13] of 0.18 h⁻¹ and a Kel [1, 14] of 0.167 h⁻¹. For the same molecule, the Kel [1, 15] was 0.177 h⁻¹, the Cmax [1, 16] was 591 ng/mL and the MRT [1, 16] was 3.7 h. For the same molecule, the Tmax [1, 16] was 0.46 h, the half-life ([1]; 1 mg/kg, Group 1, P5P 1 mg/kg single iv, plasma PAL, mean, read-out: T½ (converted)) was 3.96 h and the Cmax [1, 17] was 2480 ng/mL. It also gave an MRT [1, 17] of 4.4 h, a Tmax [1, 17] of 0.71 h and a half-life ([1]; 5 mg/kg, Group 2, P5P 5 mg/kg single iv, plasma PAL, mean, read-out: T½ (converted)) of 4.25 h. The Cmax [1, 18] was 13300 ng/mL, the MRT [1, 18] was 3.68 h and the Tmax [1, 18] was 0.42 h. The half-life ([1]; 10 mg/kg, Group 3, P5P 10 mg/kg single iv, plasma PAL, mean, read-out: T½ (converted)) was 4.2 h, the Cmax [1, 19] was 25900 ng/mL and the MRT [1, 19] was 3.98 h. It also gave a Tmax [1, 19] of 0.32 h, a half-life ([1]; 20 mg/kg, Group 4, P5P 20 mg/kg single iv, plasma PAL, mean, read-out: T½ (converted)) of 4.01 h and a half-life [1, 11] of roughly 4 h. It also gave an AUC(0-inf) [1, 12] of 2070 ng·h/mL, an AUC(0-t) ([1]; Group 1, P5P 1 mg/kg single iv, plasma PAL, mean, read-out: AUC (0-t)) of 2020 ng·h/mL and an AUC(0-inf) [1, 13] of 10400 ng·h/mL. It also gave an AUC(0-t) ([1]; Group 2, P5P 5 mg/kg single iv, plasma PAL, mean, read-out: AUC (0-t)) of 10100 ng·h/mL, an AUC(0-inf) [1, 14] of 39500 ng·h/mL and an AUC(0-t) ([1]; Group 3, P5P 10 mg/kg single iv, plasma PAL, mean, read-out: AUC (0-t)) of 39100 ng·h/mL. For the same molecule, the AUC(0-inf) [1, 15] was 95200 ng·h/mL, the AUC(0-t) ([1]; Group 4, P5P 20 mg/kg single iv, plasma PAL, mean, read-out: AUC (0-t)) was 94400 ng·h/mL and the “Significance of b1, lnAUCi” value [1] was less than 0.0001. The “Significance of b1, lnCmax” value [1] was less than 0.0001, the “Significance of b1, lnMRT” value [1] was 0.5671 and the “Significance of b1, lnThalf” value [1] was 0.5604. The “Coef. for Dose (b1), lnAUCi” value [1] was 1.30, the “Coef. for Dose (b1), lnCmax” value [1] was 1.30 and the “Coef. for Dose (b1), lnMRT” value [1] was 0.02. The “Coef. for Dose (b1), lnThalf” value [1] was 0.03, the “Intercept (b0), lnAUCi” value [1] was 0.56 and the “Intercept (b0), lnCmax” value [1] was −0.72. For the same molecule, the “Intercept (b0), lnMRT” value [1] was 1.33, the “Intercept (b0), lnThalf” value [1] was 1.33 and the “dose relationship of plasma AUCinf and Cmax” value [1] was “increase more than expected based on dose”. For the same molecule, the “Ae0-t, total amount excreted in urine” value ([2]; Day 1, PAL) was 18583712 ng, the “Ae0-t, total amount excreted in urine” value ([2]; Day 4, PAL) was 21011635 ng and the CL renal ([2]; Day 1, PAL) was 14.3 mL/min. The CL renal ([2]; Day 4, PAL) was 12.1 mL/min.
